For assay [1], the target named is T1, NUAK family SNF1-like kinase 1 (Homo sapiens) (UniProt O60285).
T1 sequence (whole entry): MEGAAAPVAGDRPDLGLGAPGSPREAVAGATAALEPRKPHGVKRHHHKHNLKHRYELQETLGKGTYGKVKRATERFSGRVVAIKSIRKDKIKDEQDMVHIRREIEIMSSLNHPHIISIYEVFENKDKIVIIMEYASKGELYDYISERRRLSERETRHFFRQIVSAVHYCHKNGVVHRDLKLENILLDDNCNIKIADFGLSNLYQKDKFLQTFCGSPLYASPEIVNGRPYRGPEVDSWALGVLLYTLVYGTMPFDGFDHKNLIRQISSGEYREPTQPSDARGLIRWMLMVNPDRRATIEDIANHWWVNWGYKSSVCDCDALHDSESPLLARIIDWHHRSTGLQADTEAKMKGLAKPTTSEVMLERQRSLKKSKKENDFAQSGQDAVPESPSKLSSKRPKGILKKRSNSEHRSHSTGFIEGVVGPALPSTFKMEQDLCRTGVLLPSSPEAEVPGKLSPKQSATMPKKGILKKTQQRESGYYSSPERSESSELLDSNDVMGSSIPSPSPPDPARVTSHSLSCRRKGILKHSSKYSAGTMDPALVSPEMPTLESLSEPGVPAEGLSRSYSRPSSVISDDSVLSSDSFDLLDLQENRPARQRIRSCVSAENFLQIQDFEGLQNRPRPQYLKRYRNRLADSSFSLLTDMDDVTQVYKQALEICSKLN
Description: Selectivity interaction (Ambit KINOMEscan and KiNATiv profiling in Jurkat cells) EUB0000090b NUAK1. Type of assay: cell-based. The conditions noted are these: at 1 µM.

For assay [2], the target named is Cyclin-dependent kinase 14 (Homo sapiens) (UniProt O94921). The conditions noted are these: at 10 µM.
Assay [3] deals with Serine/threonine-protein kinase WNK2 (Homo sapiens) (UniProt Q9Y3S1). Description: Selectivity interaction (KinomeScan (DiscoverX)) EUB0001079a WNK2. The conditions noted are these: at 1 µM.
The target of assay [4] is 5'-AMP-activated protein kinase catalytic subunit alpha-1 (Homo sapiens, UniProt Q13131). Description: Selectivity interaction (KinomeScan (DiscoverX)) EUB0001049a PRKAA1. The conditions noted are these: at 1 µM.
Chain of 5'-AMP-activated protein kinase catalytic subunit alpha-1 (Q13131 whole entry, looked up): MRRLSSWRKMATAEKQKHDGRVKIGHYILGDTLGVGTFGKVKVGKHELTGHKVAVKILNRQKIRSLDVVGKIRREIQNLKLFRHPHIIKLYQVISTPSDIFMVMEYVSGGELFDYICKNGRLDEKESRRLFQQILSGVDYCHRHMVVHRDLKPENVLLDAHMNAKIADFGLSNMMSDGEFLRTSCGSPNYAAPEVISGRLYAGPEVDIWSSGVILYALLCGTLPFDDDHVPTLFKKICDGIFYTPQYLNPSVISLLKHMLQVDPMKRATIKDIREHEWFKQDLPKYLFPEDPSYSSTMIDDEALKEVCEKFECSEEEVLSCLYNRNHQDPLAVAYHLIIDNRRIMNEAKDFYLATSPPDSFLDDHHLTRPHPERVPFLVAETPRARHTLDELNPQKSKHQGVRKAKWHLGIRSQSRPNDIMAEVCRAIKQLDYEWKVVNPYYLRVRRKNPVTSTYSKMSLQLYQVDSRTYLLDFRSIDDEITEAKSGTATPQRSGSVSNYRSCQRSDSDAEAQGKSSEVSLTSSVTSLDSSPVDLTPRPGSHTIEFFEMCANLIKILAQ
Assay [5] has as its target T2, Serine/threonine-protein kinase D1 (Homo sapiens) (UniProt Q15139).
T2 sequence (whole entry): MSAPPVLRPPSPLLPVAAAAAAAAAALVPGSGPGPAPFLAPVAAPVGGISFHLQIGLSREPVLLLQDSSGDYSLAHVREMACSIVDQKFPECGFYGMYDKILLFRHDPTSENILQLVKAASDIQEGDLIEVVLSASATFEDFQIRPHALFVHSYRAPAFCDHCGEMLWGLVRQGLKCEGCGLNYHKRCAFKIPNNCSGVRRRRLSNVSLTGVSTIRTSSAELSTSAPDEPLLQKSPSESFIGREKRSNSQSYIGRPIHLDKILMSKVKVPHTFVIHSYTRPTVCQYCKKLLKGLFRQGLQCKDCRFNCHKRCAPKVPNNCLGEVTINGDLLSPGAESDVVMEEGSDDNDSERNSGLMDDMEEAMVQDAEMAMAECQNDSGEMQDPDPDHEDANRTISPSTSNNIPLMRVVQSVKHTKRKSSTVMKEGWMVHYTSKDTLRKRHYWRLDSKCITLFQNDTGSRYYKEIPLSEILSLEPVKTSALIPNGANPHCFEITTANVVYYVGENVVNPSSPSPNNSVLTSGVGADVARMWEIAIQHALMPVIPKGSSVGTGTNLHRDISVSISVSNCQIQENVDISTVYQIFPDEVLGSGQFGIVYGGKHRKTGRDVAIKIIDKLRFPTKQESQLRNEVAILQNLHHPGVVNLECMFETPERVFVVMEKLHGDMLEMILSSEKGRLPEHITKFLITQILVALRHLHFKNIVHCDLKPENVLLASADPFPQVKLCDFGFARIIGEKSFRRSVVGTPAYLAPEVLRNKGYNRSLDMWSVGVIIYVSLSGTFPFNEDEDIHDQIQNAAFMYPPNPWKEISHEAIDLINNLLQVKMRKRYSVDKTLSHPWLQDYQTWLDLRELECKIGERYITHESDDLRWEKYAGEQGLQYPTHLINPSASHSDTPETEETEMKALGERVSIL
Description: Selectivity interaction (KinomeScan (DiscoverX)) EUB0000045b PRKD1.

In assay [6] the test system is Epidermal growth factor receptor (Homo sapiens), P00533 [UNDEFINED MUTATION]. Description: Selectivity interaction (KinomeScan (DiscoverX)) EUB0000045b EGFR. The conditions noted are these: at 10 µM.
Chain of Epidermal growth factor receptor (Homo sapiens), P00533 [UNDEFINED MUTATION] (P00533 whole entry, looked up, change not shown): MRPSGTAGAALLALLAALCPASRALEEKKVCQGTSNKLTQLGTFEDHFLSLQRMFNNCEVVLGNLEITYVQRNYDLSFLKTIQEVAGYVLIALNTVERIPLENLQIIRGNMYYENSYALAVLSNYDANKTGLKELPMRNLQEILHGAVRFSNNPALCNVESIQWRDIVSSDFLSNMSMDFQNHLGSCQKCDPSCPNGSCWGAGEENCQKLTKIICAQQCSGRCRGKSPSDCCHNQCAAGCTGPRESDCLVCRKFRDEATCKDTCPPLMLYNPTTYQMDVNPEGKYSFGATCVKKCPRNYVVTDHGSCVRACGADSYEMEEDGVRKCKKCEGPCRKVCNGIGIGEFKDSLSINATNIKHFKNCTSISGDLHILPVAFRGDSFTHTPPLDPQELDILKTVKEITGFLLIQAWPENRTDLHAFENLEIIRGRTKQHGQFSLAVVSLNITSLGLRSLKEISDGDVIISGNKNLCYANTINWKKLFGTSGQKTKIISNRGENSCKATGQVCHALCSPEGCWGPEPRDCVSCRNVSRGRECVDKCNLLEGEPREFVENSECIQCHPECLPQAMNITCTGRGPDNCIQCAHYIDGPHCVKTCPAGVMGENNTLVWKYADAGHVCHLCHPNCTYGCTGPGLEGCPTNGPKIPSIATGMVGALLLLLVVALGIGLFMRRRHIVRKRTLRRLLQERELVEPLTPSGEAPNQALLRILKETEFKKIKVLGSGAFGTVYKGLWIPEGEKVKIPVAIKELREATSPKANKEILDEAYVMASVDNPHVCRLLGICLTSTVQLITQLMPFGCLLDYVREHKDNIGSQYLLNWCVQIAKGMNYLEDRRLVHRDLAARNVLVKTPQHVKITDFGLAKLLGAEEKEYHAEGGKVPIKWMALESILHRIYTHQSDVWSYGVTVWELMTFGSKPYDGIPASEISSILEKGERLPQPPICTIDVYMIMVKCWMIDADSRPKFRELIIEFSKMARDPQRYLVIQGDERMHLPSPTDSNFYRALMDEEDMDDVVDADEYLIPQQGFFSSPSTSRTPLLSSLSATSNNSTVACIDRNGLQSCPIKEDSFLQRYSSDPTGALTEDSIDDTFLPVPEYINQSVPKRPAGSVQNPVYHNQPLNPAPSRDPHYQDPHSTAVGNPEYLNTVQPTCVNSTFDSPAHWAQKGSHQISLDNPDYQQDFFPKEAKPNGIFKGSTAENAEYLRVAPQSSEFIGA
Assay [7] concerns the target Mitogen-activated protein kinase kinase kinase kinase 4 (Homo sapiens, UniProt O95819). Description: Selectivity interaction (KinomeScan (DiscoverX)) EUB0000666a MAP4K4. The conditions noted are these: at 10 µM.
The target of assay [8] is DNA (cytosine-5)-methyltransferase 3B (Homo sapiens) (UniProt Q9UBC3). Particulars: at 1 µM.
Assay [9] addresses Mitogen-activated protein kinase 3 (Homo sapiens, UniProt P27361). Description: Selectivity interaction (KinomeScan (DiscoverX)) EUB0000607a MAPK3. Particulars: at 10 µM.
The target in assay [10] is Serine/threonine-protein kinase 10 (Homo sapiens) (UniProt O94804). Description: Selectivity interaction (ActivX KiNativ screen (kinase selectivity in THP-1 cell lysates)) EUB0000639a STK10. Particulars: lysate, at 0.01 µM. The assay is classed as subcellular.
Assay [11] has as its target Serine/threonine-protein kinase N1 (Homo sapiens, UniProt Q16512). Description: Selectivity interaction (ActivX KiNativ screen (kinase selectivity in THP-1 cell lysates)) EUB0000639a PKN1. Type of assay: subcellular. The conditions noted are these: lysate, at 5 µM.
The target in assay [12] is Calcium/calmodulin-dependent protein kinase type II subunit delta (Homo sapiens) (UniProt Q13557). Description: Selectivity interaction (ActivX KiNativ screen (ex vivo kinase selectivity in human PBMCs)) EUB0001619a CAMK2D. Type of assay: cell-based. The conditions noted are these: PBMC, at 1 µM.
Chain of Calcium/calmodulin-dependent protein kinase type II subunit delta (Homo sapiens) (Q13557 whole entry): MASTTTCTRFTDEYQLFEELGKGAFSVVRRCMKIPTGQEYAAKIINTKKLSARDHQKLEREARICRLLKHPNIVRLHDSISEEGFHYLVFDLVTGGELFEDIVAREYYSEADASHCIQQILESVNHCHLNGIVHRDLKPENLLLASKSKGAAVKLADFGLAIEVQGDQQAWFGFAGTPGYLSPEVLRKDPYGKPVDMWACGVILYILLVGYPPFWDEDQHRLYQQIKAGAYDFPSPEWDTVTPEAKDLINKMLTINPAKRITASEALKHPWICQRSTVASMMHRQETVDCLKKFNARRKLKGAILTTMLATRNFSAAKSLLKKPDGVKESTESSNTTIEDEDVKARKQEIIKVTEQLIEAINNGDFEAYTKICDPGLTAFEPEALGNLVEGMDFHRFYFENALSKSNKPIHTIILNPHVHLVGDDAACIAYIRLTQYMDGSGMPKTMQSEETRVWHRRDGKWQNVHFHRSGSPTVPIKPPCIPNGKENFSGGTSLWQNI

Structures are written as SMILES. Where only a bound is given, the exact number is not on record here.

Chain of Mitogen-activated protein kinase 3 (P27361 whole entry): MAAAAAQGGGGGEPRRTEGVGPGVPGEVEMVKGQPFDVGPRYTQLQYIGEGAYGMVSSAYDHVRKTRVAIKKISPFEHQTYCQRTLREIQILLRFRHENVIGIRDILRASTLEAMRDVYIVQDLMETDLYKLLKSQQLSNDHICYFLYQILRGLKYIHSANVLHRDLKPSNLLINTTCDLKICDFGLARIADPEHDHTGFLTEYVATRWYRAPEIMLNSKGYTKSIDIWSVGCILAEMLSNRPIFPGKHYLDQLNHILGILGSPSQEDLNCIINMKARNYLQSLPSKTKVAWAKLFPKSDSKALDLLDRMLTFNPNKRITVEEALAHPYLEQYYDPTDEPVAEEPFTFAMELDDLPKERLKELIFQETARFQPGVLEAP
Chain of Serine/threonine-protein kinase N1 (Q16512 2-942 limits assumed): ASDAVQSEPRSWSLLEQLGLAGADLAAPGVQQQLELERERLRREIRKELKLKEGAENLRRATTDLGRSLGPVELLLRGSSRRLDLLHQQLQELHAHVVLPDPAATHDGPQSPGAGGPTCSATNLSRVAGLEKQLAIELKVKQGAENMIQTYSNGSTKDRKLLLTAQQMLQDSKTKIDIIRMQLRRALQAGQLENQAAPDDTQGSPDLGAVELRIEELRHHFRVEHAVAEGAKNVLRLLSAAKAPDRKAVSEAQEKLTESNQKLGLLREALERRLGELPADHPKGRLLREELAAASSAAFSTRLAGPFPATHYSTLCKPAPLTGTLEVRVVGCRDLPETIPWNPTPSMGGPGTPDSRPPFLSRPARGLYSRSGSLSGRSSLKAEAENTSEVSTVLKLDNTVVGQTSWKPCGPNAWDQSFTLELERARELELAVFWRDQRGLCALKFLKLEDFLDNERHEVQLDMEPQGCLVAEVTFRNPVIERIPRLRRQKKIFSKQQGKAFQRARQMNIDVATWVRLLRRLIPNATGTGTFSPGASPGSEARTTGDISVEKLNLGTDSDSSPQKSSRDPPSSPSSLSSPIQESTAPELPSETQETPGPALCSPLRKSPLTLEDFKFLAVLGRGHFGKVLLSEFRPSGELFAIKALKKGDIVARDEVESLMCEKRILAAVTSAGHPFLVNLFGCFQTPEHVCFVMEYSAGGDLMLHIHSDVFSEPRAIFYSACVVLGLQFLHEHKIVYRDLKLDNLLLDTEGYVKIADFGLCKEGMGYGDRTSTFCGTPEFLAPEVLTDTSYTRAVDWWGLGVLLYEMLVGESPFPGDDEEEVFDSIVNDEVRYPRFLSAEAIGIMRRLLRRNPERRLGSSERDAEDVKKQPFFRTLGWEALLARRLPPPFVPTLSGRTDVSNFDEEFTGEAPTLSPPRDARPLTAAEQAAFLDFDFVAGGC
Chain of Mitogen-activated protein kinase kinase kinase kinase 4 (O95819 2-1239 limits assumed): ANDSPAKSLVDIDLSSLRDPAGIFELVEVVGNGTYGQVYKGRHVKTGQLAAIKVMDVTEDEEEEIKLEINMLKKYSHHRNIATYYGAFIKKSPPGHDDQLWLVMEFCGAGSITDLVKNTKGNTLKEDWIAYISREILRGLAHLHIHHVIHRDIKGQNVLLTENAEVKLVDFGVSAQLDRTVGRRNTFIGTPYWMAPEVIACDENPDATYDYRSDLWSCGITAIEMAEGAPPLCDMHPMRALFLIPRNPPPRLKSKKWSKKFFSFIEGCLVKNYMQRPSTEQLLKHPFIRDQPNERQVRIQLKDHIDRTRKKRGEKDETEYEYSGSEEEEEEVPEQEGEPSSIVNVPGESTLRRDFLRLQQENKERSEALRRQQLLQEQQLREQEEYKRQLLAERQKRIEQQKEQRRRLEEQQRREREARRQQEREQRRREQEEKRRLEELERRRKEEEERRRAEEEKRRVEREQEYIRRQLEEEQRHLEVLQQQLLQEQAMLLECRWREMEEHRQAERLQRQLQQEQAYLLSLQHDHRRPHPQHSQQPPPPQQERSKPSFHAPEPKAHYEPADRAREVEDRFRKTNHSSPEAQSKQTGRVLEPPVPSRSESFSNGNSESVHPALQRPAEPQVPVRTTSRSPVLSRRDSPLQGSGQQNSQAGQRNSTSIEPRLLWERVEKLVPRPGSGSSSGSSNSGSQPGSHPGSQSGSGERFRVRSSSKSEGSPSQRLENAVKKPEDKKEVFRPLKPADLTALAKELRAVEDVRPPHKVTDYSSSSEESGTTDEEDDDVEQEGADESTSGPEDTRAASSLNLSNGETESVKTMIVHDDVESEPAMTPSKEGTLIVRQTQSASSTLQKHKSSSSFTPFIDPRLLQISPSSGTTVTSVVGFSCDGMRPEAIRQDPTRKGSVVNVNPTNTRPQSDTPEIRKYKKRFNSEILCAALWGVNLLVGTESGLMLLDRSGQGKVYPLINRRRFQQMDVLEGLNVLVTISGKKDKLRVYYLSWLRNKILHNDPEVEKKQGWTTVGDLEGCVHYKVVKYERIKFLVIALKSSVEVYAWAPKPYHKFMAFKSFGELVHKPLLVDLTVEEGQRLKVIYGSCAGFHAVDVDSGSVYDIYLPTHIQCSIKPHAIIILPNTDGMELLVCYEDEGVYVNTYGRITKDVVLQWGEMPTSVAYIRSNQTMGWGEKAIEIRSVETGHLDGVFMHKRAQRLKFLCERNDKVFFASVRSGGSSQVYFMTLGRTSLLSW

`CN(C)C/C=C/C(=O)Nc1ccc(C(=O)N2CCCC(Nc3ncc(Cl)c(-c4c[nH]c5ccccc45)n3)C2)cc1` (stereo not drawn): the % of control in [1] amounted to 84%.

For the molecule `CCN(CC)CCCCNc1ncc2cc(-c3cc(OC)cc(OC)c3)c(NC(=O)NC(C)(C)C)nc2n1`, in assay [2], the % of control came out at 100%.

The molecule `Nc1cnc(N2CCc3cc(S(=O)(=O)Nc4c(F)cc(Cl)cc4F)cc(N4CCCC4=O)c32)nc1` [TP-020n] registered a % of control in [3] of 100%.

In turn, `COc1cc(Nc2nc(C)cc(-c3cnn4nc(OC)ccc34)n2)cc(C(F)(F)F)c1` had a % of control in assay [4] of 87%.

Regarding `C=CC(=O)Nc1cc(-n2c(=O)ccc3cnc4ccc(-c5ccc(NS(C)(=O)=O)cc5)cc4c32)ccc1C`, the % of control stood at 100% in assay [5] (at 1 µM), 84% in [5] (at 10 µM) and 62% in assay [6].

Take `O=C(NOC[C@H](O)CO)c1ccc(F)c(F)c1Nc1ccc(I)cc1F`: the % of control in assay [7] stood at 69%.

The molecule `CNCCN1CCC(c2cc(CN(C)C(=O)c3cccc(Oc4ccccc4)c3)ccn2)CC1` gave a % activity in [8] of over 85%.

In assay [9], `CNC(=O)Nc1ccc(-c2nc(N3CC4CCC(C3)O4)c3cnn(C4CCC5(CC4)OCCO5)c3n2)cc1` registered a % of control of 97%.

As to `CC[C@@H]1[C@H](F)C(=O)N[C@@H]1COc1nccc2cc(C(N)=O)c(OC)cc12` [ZIMLOVISERTIB], the % of inhibition was -34.8% in assay [10] and 0.1% in assay [11].

Take `N#Cc1cccc(-c2c[nH]c3ncnc(N4CCOCC4)c23)c1`: in assay [12], the % of inhibition is 4%.
